Data from PubChem BioAssay (NCI).
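Five concentrations, 48 hours, 96-well plates. TGI denotes the concentration required for complete inhibition of growth.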

Experiments:
Test in all cases: growth of human tumour cells (NCI), 48 h
SNB-78 CNS = tested on: SNB-78 CNS
IGROV1 ovarian = tested on: IGROV1 ovarian
LXFL 529 NSCLC = tested on: LXFL 529 NSCLC
SNB-19 CNS = tested on: SNB-19 CNS
HOP-62 NSCLC = tested on: HOP-62 NSCLC
CAKI-1 renal = tested on: CAKI-1 renal
OVCAR-4 ovarian = tested on: OVCAR-4 ovarian
NCI/ADR-RES ovarian = tested on: NCI/ADR-RES ovarian
DMS 114 small cell lung = tested on: DMS 114 small cell lung
M19-MEL melanoma = tested on: M19-MEL melanoma
EKVX NSCLC = tested on: EKVX NSCLC
SF-268 CNS = tested on: SF-268 CNS

| Compound | TGI (SNB-78 CNS) | TGI (IGROV1 ovarian) | TGI (LXFL 529 NSCLC) | TGI (SNB-19 CNS) | TGI (HOP-62 NSCLC) | TGI (CAKI-1 renal) | TGI (OVCAR-4 ovarian) | TGI (NCI/ADR-RES ovarian) | TGI (DMS 114 small cell lung) | TGI (M19-MEL melanoma) | TGI (EKVX NSCLC) | TGI (SF-268 CNS) |
| --- | --- | --- | --- | --- | --- | --- | --- | --- | --- | --- | --- | --- |
| NC1=NC(c2ccccc2)CC(c2cc(Cl)cc(Br)c2O)=N1 (stereo unspecified) | 47.7 µM | 30.8 µM | 31.3 µM | 33.3 µM | 25.1 µM | 26.8 µM | 41.9 µM | 29.9 µM | 27.1 µM | 28.2 µM | 28.2 µM | 26.9 µM |
| Cc1ccc(NC(=O)CC/C(CC(=O)c2ccc(Cl)cc2)=N\NC(=O)C(=O)NN)cc1C | > 100 µM | > 100 µM | > 100 µM | > 100 µM | > 100 µM | > 100 µM | > 100 µM |  | > 100 µM | > 100 µM | > 100 µM | > 100 µM |
| O=C(c1cc2c(C(F)(F)F)onc2c2ccccc12)C(F)(F)F | 3.82 µM | > 100 µM | > 47 µM | > 27.9 µM | 11.3 µM | 20.9 µM | > 100 µM |  | 10.9 µM | 23.4 µM | > 33.3 µM | 19.9 µM |
| CCN(CC)CCOC(=O)/C(=C/c1ccc(OC)cc1)c1cc(OC)c(OC)c(OC)c1 | > 100 µM | > 100 µM | 23.1 µM | 80.6 µM | 31.7 µM | 38 µM | > 100 µM |  | 22.2 µM | > 100 µM | > 100 µM | > 100 µM |
| CC1=C(/C=C/C2=CC(=C\C(=O)O)/CC(C3=C(C)CCCC3(C)C)C2)C(C)(C)CCC1 (stereo unspecified) | 41.2 µM | 26.4 µM | 26.8 µM | 27.7 µM | 27 µM | 29.5 µM | 28.1 µM |  | 23 µM | 30.6 µM | 23.4 µM | 36.1 µM |
| COc1cc([C@@H]2c3cc4c(cc3[C@@H](NCc3ccc(C#N)cc3)C3COC(=O)[C@@H]32)OCO4)cc(OC)c1O (stereo partly specified) | 53.2 µM | 7.29 µM | 50.2 µM | > 100 µM | 1.41 µM | 8.83 µM | > 100 µM |  | 4.98 µM | 19.5 µM | 5.76 µM | 6.6 µM |
| C[C@@H](NC1CCC[C@@H]1O)c1ccccc1 (stereo partly specified) | > 100 µM | > 100 µM | > 100 µM | > 100 µM | > 100 µM | > 100 µM | > 100 µM |  | > 100 µM | > 100 µM | > 100 µM |  |
| O=C(N/C(=C\c1ccc([N+](=O)[O-])cc1)c1nc2ccc(Cl)cc2[nH]1)c1ccccc1 | > 100 µM | 43.8 µM | 70.7 µM | > 100 µM |  | 59.6 µM | 60.8 µM |  | > 100 µM | > 100 µM | 74.6 µM | 42.8 µM |
| CC(C)Cc1ccc(C(C)/C=C2\CCC(CN3CCCC3)C2=O)cc1 (stereo unspecified) | 42.5 µM | 19 µM | 4.77 µM | 26.4 µM | 26.1 µM | 28 µM | 27.1 µM |  | 12.2 µM | 13.7 µM | 33.3 µM | 12.3 µM |
| CCCCCCCC(=O)OCC1OC(n2cc(F)c(=O)[nH]c2=O)C(NC(=O)OCc2ccccc2)C(OC(=O)CCCCCCC)C1O (stereo unspecified) | > 100 µM | > 100 µM | > 100 µM |  | > 100 µM | > 100 µM | 83 µM |  | > 100 µM | 54.6 µM | > 100 µM | > 100 µM |
| CC(=O)O[C@H]1CCC2[C@@H]3CCC4Nc5c(cnn5-c5ccccc5)C[C@]4(C)C3CC[C@@]21C (stereo partly specified) | 63.4 µM | > 100 µM | 58.5 µM | 41.9 µM | 95.7 µM | 20.7 µM | 71.3 µM |  | 58.3 µM | 24.4 µM | 16.5 µM | > 100 µM |
| O=C1NC(=O)C(=O)C(c2nc3ccccc3s2)C1=O | > 100 µM | > 100 µM | > 100 µM | > 100 µM | > 100 µM | > 100 µM | > 100 µM |  | > 100 µM | > 100 µM | > 100 µM | > 100 µM |
| CCOC(=O)CNC1C(NC(C)=O)C(OC)OC2COC(c3ccccc3)OC21 (stereo unspecified) | > 100 µM | > 100 µM | > 100 µM | > 100 µM |  | > 100 µM | > 100 µM |  | > 100 µM | > 100 µM | > 100 µM | > 100 µM |
| CC(C)c1cccc(C(C)C)c1N=C(N)C#N | > 100 µM | > 100 µM | > 100 µM | > 100 µM | > 100 µM | > 100 µM | > 100 µM |  | > 59.2 µM | > 100 µM | > 100 µM | > 100 µM |
